Results as given in publication PMC8408276, “Distinct neuropeptide-receptor modules regulate a sex-specific behavioral response to a pheromone” (Communications Biology, 2021).
“Also recorded” adds a separate entry of the source. Where a SMILES comes first, the peptide text is derived from it. Where no end group is shown, it is not given here.

Legend:
NPR-10B = target: T1, NPR-10B (Caenorhabditis elegans, UniProt Q6EUU1); experiment: In vitro GPCR activation assay (CHO-K1, aequorin, Gα16), NPR-10B; assay type: cell-based, C. elegans; details: for EC50: NPR-10B in CHO-K1 cells with mtAEQ aequorin and human Gα16, peptide 1 pM to 10 µM, n ≥ 6, Fig. 4i
T1 sequence (Q6EUU1 1-362): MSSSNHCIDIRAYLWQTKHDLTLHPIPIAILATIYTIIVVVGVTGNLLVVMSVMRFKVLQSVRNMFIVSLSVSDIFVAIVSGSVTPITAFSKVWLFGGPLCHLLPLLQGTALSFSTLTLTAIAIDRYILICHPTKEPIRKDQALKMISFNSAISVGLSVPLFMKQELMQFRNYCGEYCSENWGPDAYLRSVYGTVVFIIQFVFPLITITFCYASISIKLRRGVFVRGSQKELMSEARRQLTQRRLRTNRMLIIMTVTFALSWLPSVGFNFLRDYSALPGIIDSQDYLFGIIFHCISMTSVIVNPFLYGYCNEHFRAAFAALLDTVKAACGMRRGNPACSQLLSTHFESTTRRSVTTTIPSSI
Description: (§1) The GPCR activation assay was performed as previously described[66],[74]. Briefly, npr-10 and frpr-16 cDNAs were cloned into the pcDNA3.1 TOPO expression vector (Thermo Fisher Scientific). A CHO-K1 cell line (PerkinElmer, ES-000-A24) stably expressing apo-aequorin targeted to the mitochondria (mtAEQ) and human Gα16 was transiently transfected with the receptor cDNA construct or the empty pcDNA3.1 vector using Lipofectamine LTX and Plus reagent (Thermo Fisher Scientific). Cells were shifted to 28 °C one day later and allowed to incubate for 24 h. On the day of the assay, cells were collected in BSA medium (DMEM/Ham’s F12 with 15 mM HEPES, without phenol red, 0.1% BSA) and loaded with […] coelenterazine h (Thermo Fisher Scientific) for 4 h at room temperature. The incubated cells were then added to synthetic peptides dissolved in DMEM/BSA, and luminescence was measured for 30 s at 496 nm using a Mithras LB940 (Berthold Technologies) or MicroBeta LumiJet luminometer (PerkinElmer). After 30 s of readout, 0.1% triton X-100 was added to lyse the cells, resulting in a maximal calcium response that was measured for 10 s. After initial screening, concentration-response curves were constructed for HPLC-purified FLP-3 peptides by subjecting the transfected cells to each peptide in a concentration range from 1 pM to 10 µM. Cells transfected with an empty vector were used as a negative control. Assays were performed in triplicate on at least two independent days. Concentration-response curves were fitted using Prism v. 7 (nonlinear regression analysis with a sigmoidal concentration-response equation).

FRPR-16 = target: T2, FRPR-16 (Caenorhabditis elegans, UniProt Q21957); experiment: In vitro GPCR activation assay (CHO-K1, aequorin, Gα16), FRPR-16; assay type: cell-based, C. elegans; details: for EC50: FRPR-16 in CHO-K1 cells with mtAEQ aequorin and human Gα16, peptide 1 pM to 10 µM, n ≥ 6, Fig. 4i
T2 sequence (Q21957 1-340): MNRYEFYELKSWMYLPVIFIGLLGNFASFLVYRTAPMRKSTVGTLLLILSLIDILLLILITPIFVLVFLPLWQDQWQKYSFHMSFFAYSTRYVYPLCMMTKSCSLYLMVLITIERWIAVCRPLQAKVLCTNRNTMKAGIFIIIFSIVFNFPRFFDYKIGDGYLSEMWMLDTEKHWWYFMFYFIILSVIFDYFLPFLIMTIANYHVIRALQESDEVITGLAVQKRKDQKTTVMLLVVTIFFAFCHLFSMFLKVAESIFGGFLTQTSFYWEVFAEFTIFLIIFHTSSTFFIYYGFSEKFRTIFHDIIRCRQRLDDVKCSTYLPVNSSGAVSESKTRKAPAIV
Description: as §1

NPR-10A = experiment: In vitro GPCR activation assay (CHO-K1, aequorin, Gα16), NPR-10A; assay type: cell-based, C. elegans; details: CHO-K1 aequorin/Gα16 calcium response; Supplementary Fig. 10a
Description: This peptide contains an R-to-K mutation within the C-terminal motif, which may explain the lack of receptor activation.
as §1, with “After initial screening, concentration-response curves were constructed for HPLC-purified FLP-3 peptides by subjecting the transfected cells to each peptide in a concentration range from 1 pM to 10 µM. Cells transfected with an empty vector were used as a negative control. Assays were performed in triplicate on at least two independent days. Concentration-response curves were fitted using Prism v. 7 (nonlinear regression analysis with a sigmoidal concentration-response equation).” left out

C. elegans = experiment: Single worm attraction assay (SWAA); assay type: in vivo; details: flp-3 lof males; Supplementary Fig. 5
Description: We adapted the spot retention assay (Supplementary Fig. 1)[28],[38] to allow for better characterization of individual worm behavior and robust interrogation of attraction to small molecules. We first compared the attractiveness of 1 µM ascr#8 (Fig. 1a, inset) across multiple strains of C. elegans (the wild-type N2 strain, the high incidence of male him-5 and him-8 strains, and the chemosensory cilia defective osm-3), using our novel behavioral assay, the single worm attraction assay (SWAA) (Fig. 1a). In this assay, individual animals are placed directly into the spot of the ascaroside cue (A) while simultaneously removing any potential of male–male contact. A spatial control is included throughout the assay plate to allow us to investigate any innate differences in the number of visits to the well center, or the time spent therein, of which we have only found one strain to date with differences in male dwell time (Fig. 1a). Likewise, a vehicle control (V) is also included, to account of any changes in dwell time that are driven by the components of the vehicle. The outer forty wells of a 48-well suspension culture plate (Olympus Plastics, Cat #: 25-103) were seeded with 200 µL of standard NGM agar. To prepare the plates for the assay, they were acclimated to room temperature, at which point each well was seeded with 65 µL of OP50 E. coli. […] A single worm was placed in each of the 10 wells to be assayed, and the plate was transferred to a light source and camera and recorded for 15 m. […] Raw dwell time values were calculated by subtracting the time a worm exited the cue (center of the well in spatial controls), from the time it entered, as in the SRA[14]. This was determined per visit, and the average dwell time was calculated for each animal in the quadrant. Averages of the four-quadrant means were determined per plate, and a minimum of five plates were assayed per strain/condition. The mean raw dwell time across five plates was calculated and used for statistical analyses and graphical display. […] The number of visits per-worm was calculated, and the average visit count determined per quadrant, and per plate. The average visit count across five plates was calculated and used for statistical analyses and graphical display. An “attractive visit” was first determined for each plate as any visit greater than two standard deviations above the mean dwell time within the vehicle control for that plate. Any individual visit meeting this threshold was scored as a “1”, and any below was scored a “0”. The percent visits per-worm that were attractive was determined, and the average of each quadrant taken. […] The average percent of attractive visits across five plates was calculated and used for statistical analyses and graphical display. […]

[1] = CHO-K1 aequorin/Gα16 calcium response

Compound	EC50 (NPR-10B; luminescence 30 s) [nM]	EC50 (FRPR-16; luminescence 30 s) [nM]	other results
CSCC[C@H](NC(=O)[C@@H](NC(=O)CNC(=O)[C@H](CC(C)C)NC(=O)[C@@H]1CCCN1C(=O)[C@@H](N)[C@@H](C)O)[C@@H](C)O)C(=O)N[C@@H](CCCNC(=N)N)C(=O)N[C@@H](Cc1ccccc1)C(N)=O [FLP-3-2, TPLGTMRFamide] (H-TPLGTMRF-NH2)	367	31.7	–
EDGNAPFGTMKF-NH2 [FLP-3-6, flp-3 encoded peptide with R-to-K mutation within the C-terminal motif]	–	–	Activation of NPR-10 (NPR-10B), in words (NPR-10B; [1]): activated no receptors; also recorded: did not activate either receptor; Activation of FRPR-16, in words (FRPR-16; [1]): activated no receptors; also recorded: did not activate either receptor; Activation of NPR-10A, in words (NPR-10A): activated no receptors
CSCC[C@H](NC(=O)[C@@H](NC(=O)CNC(=O)[C@H](CC(C)C)NC(=O)[C@@H]1CCCN1C(=O)[C@@H](N)CO)[C@@H](C)O)C(=O)N[C@@H](CCCNC(=N)N)C(=O)N[C@@H](Cc1ccccc1)C(N)=O [FLP-3-1, SPLGTMRFamide] (H-SPLGTMRF-NH2)	262	7.4	–
CSCC[C@H](NC(=O)[C@@H](NC(=O)CNC(=O)[C@H](Cc1ccccc1)NC(=O)[C@@H]1CCCN1C(=O)[C@H](C)NC(=O)[C@H](CO)NC(=O)[C@H](CC(=O)O)NC(=O)[C@H](CC(=O)O)NC(=O)[C@H](C)NC(=O)[C@@H](N)CO)[C@@H](C)O)C(=O)N[C@@H](CCCNC(=N)N)C(=O)N[C@@H](Cc1ccccc1)C(N)=O [FLP-3-8, SADDSAPFGTMRFamide] (H-SADDSAPFGTMRF-NH2)	–	–	EC50 (FRPR-16): 1600 nM
CSCC[C@H](NC(=O)[C@@H](NC(=O)CNC(=O)[C@H](CC(C)C)NC(=O)[C@@H]1CCCN1C(=O)[C@@H](N)CC(N)=O)[C@@H](C)O)C(=O)N[C@@H](CCCNC(=N)N)C(=O)N[C@@H](Cc1ccccc1)C(N)=O [FLP-3-4, NPLGTMRFamide] (H-NPLGTMRF-NH2)	427	10.7	–
C[C@H](CCCC/C=C/C(=O)O)O[C@@H]1O[C@@H](C)[C@H](O)C[C@H]1O [ascr#3]	–	–	Attractive response, in words (C. elegans): no defect
CSCC[C@H](NC(=O)[C@@H](NC(=O)CNC(=O)[C@H](CC(C)C)NC(=O)[C@@H]1CCCN1C(=O)[C@H](CCC(=O)O)NC(=O)[C@H](CCC(=O)O)NC(=O)[C@H](C)NC(=O)[C@@H](N)CCC(=O)O)[C@@H](C)O)C(=O)N[C@@H](CCCNC(=N)N)C(=O)N[C@@H](Cc1ccccc1)C(N)=O [FLP-3-3, EAEEPLGTMRFamide] (H-EAEEPLGTMRF-NH2)	867	288	–

Continued, in another order:

EC50 (NPR-10B; luminescence 30 s) [nM]	EC50 (FRPR-16; luminescence 30 s) [nM]	Compound	other results
–	72.1	CSCC[C@H](NC(=O)[C@@H](NC(=O)CNC(=O)[C@H](Cc1ccccc1)NC(=O)[C@H](CC(C)C)NC(=O)[C@H](C)NC(=O)[C@H](CC(=O)O)NC(=O)[C@H](CCC(=O)O)NC(=O)[C@H](CO)NC(=O)[C@H](C)N)[C@@H](C)O)C(=O)N[C@@H](CCCNC(=N)N)C(=O)N[C@@H](Cc1ccccc1)C(N)=O [FLP-3-5, ASEDALFGTMRFamide] (H-ASEDALFGTMRF-NH2)	EC50 (NPR-10B): 1100 nM
760	88.3	CSCC[C@H](NC(=O)[C@@H](NC(=O)CNC(=O)[C@H](Cc1ccccc1)NC(=O)[C@@H]1CCCN1C(=O)[C@@H](NC(=O)[C@H](CC(=O)O)NC(=O)[C@H](CC(N)=O)NC(=O)[C@H](CCC(=O)O)NC(=O)[C@@H]1CCCN1C(=O)[C@@H](N)CC(N)=O)[C@@H](C)O)[C@@H](C)O)C(=O)N[C@@H](CCCNC(=N)N)C(=O)N[C@@H](Cc1ccccc1)C(N)=O [FLP-3-9, NPENDTPFGTMRFamide] (H-NPENDTPFGTMRF-NH2)	–
439	39.5	CSCC[C@H](NC(=O)[C@@H](NC(=O)CNC(=O)[C@H](Cc1ccccc1)NC(=O)[C@@H]1CCCN1C(=O)[C@H](CCC(=O)O)NC(=O)[C@H](C)NC(=O)[C@@H](N)CO)[C@@H](C)O)C(=O)N[C@@H](CCCNC(=N)N)C(=O)N[C@@H](Cc1ccccc1)C(N)=O [FLP-3-7, SAEPFGTMRFamide] (H-SAEPFGTMRF-NH2)	–
